From patent US20080160059A1, “ANTIBIOTIC/ANTIMYCOTIC PREPARATION AND USE IN PLANTS” (priority 2006, published 2008)
Counter-ions that a name gives are not always drawn.

Tested on: Burkholderia andropogonis
Assay: Absorbent disc test on a bacterial lawn on agar (kill zone)
Assay type: cell-based
Details: intermediate concentration tested; absorbent discs on bacterial lawn
From the text: To determine the sensitivity of Burkholderia andropogonis, a stock was applied to commercially prepared agar-containing Petri dishes to provide dishes containing a lawn of bacteria. Then, absorbent discs containing a mixture of oxytetracycline hydrochloride and copper oxychloride, and each of the active ingredients separately, oxytetracycline hydrochloride alone and copper oxychloride alone were placed onto the bacterial lawn. The concentrations of the individual active agents in the discs were the same as that for each found in the combination. The combination and the individual actives were tested at three different concentrations. Each concentration was run in triplicate.
An analogous commercially available system for making routine determinations of bacterial and fungal sensitivity also was used.
The toxicity at each concentration was far greater than the sum of the toxicities of each active agent alone, for example, at the intermediate concentration tested, the bacteria kill zone for oxytetracycline was 3.3 mm in diameter; for copper oxychloride, the zone was 2 mm in diameter; but for the combination, the kill zone was 15 mm in diameter.

Row | Compound | bacteria kill zone in diameter [mm]
1 | [Cl-].[Cu+2].[Cu+2].[OH-].[OH-].[OH-] [copper oxychloride] | 2
2 | CN(C)[C@@H]1C(O)=C(C(N)=O)C(=O)[C@@]2(O)C(O)=C3C(=O)c4c(O)cccc4[C@@](C)(O)[C@H]3[C@H](O)[C@@H]12 [oxytetracycline hydrochloride] | 3.3
